Test: Antagonist activity at TP receptor in human platelet assessed as thromboxane A2- induced platelet aggregation

Which IC50 does the source give for `C[C@@H](c1ccc(C(F)(F)F)cc1)n1c2c(c3cc(F)cc(S(C)(=O)=O)c31)CCC[C@@H]2CC(=O)O` [2-((R)-6-fluoro-8-(methylsulfonyl)-9-((S)-1-(4-(trifluoromethyl)phenyl)ethyl)-2,3,4,9-tetrahydro-1H-carbazol-1-yl)acetic acid] here?
The IC50 was 19.4 µM.

Source: BindingDB's records for doi:10.1016/j.bmcl.2010.10.018 (Merck Frosst Centre For Therapeutic Research, 2010)
